# Measurements as given in patent publication US20090247576A1, “ANTI-TUMOR AGENT FOR MULTIPLE MYELOMA” (Eisai R & D Management Co., Ltd., priority 2005, published 2009).
# Biological target: T1, FGFR3 kinase (human recombinant GST fusion protein) (Homo sapiens, UniProt P22607)
# T1 construct: GST; host or cells: Sf9 insect cells, baculovirus
# Assay: FGFR3 cell free kinase assay (33P-ATP incorporation, FlashPlate, ProQinase)
# Format: biochemical
# Details: test substance: methanesulfonate; 1 μM [γ-33P]-ATP; substrate biotinylated Poly(Glu, Tyr)4:1; 30° C., 80 minutes; 10 points from 10 μM to 0.0003 μM; read-out: FGFR3 kinase-inhibiting activity (IC50)
# Procedure: A FGFR3-inhibiting activity of 4-(3-chloro-4-(cyclopropylaminocarbonyl)aminophenoxy)-7-methoxy-6-quinolinecarbox amide was examined by ProQinase (Freiburg, GmbH) on our request. Specifically, the FGFR3-inhibiting activity was determined as follows. FGFR3 kinase was expressed in an insect cell (Spondoptea frugiperda 9 (Sf9)) as human recombinant GST fusion protein by the method of Baculovirus Expression System. The expressed recombinant protein was purified by affinity chromatography using GSH-agarose (from Sigma) or Ni-NTH-agarose (from Qiagen). The purity and identification of the protein were confirmed by SDS-PAGE, silver staining and western blotting using an antibody specific to FGFR3 kinase. Kinase assay was carried out as follows. […] The amount of ^33Pi incorporation was assessed by determining the radioactivity on the plate with a microplate scintillation counter (from Microbeta, Wallac). […] The kinase activity in the presence of the test substance at each concentration was assessed as percentage of the value obtained by subtracting the 0% value from the radioactivity value to the value obtained by subtracting the 0% value from the 100% value.
# T1 sequence (P22607 23-806): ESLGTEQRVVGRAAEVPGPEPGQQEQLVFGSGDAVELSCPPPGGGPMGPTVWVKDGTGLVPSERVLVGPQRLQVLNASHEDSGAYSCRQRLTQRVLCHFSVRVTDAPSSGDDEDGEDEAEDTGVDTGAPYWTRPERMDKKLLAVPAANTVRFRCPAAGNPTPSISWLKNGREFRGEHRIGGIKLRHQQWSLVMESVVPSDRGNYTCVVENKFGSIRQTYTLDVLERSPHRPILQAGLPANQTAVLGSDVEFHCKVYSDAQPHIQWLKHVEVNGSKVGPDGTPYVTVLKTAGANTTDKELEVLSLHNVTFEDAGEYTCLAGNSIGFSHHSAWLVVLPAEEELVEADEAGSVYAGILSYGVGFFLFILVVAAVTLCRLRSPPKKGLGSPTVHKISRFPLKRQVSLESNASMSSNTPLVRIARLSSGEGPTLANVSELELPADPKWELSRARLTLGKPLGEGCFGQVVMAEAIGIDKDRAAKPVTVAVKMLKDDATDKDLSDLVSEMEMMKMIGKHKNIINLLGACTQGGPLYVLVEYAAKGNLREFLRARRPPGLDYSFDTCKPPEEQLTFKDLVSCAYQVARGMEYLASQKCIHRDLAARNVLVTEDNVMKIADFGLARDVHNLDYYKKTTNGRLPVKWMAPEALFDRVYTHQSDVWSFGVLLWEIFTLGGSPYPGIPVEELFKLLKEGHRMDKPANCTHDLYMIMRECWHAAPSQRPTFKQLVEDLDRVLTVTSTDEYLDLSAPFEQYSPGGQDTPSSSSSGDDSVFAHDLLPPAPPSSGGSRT
smiles,measurement,value
COc1cc2nccc(Oc3ccc(NC(=O)NC4CC4)c(Cl)c3)c2cc1C(N)=O [4-(3-chloro-4-(cyclopropylaminocarbonyl)aminophenoxy)-7-methoxy-6-quinolinecarbox amide],IC50,140 nM
